According to PMC5545217 (Nature Communications, 2017):
Like-named read-outs stand apart in the source and are kept apart here.

Key:
[1] = molecular target: T1, M. tuberculosis ATP-PRT (Mycobacterium tuberculosis, UniProt P9WMN1); test: biochemical
[2] = molecular target: T2, ATP-PRT (Mycobacterium tuberculosis, UniProt P9WMN1)
[3] = molecular target: T2, ATP-PRT; test: Competition saturation transfer difference (STD) NMR; format: binding; conditions: 20 μM ATP-PRT, 400 μM TIH, L-His 0-3000 μM, pH 8.0
Procedure: NMR spectra were recorded at 25 °C on a Bruker Avance-600 spectrometer equipped with a triple resonance cryo-probe and operating at a ^1H frequency of 600 MHz. […] Spectra with on-resonance pre-saturation of the enzyme at 0.8 ppm were recorded with a saturation time of 2 s. An off-resonance control spectrum was recorded with a saturation time of 2 s. Water suppression was achieved by excitation sculpting. Data processing and spectral subtractions were performed using Bruker TopSpin 3.2 software.

[4] = molecular target: T1, M. tuberculosis ATP-PRT; conditions: cited from earlier work
[5] = molecular target: the molecule itself; test: crystal structure

## N[C@@H](Cc1c[nH]cn1)C(=O)O [L-His, L-histidine, reference compound]
[1]
  IC50: 22 ± 4 µM
[1]; 400 µM L-His (20-fold K i)
  ATP-PRT activity at saturating L-His: fully inhibited
[1]; L-His inhibition vs ATP, [TIH] 0 mM, read-out: K i,ATP
  Ki: 20 ± 1 µM
[1]; linear noncompetitive inhibition vs. PRPP, no TIH, read-out: K i,PRPP
  Ki: 16 ± 1 µM
[2]; pH 6.8, charge state +28
  Drift time of main ATP-PRT form: 44.1 ms
[2]; pH 9.0, charge state +28
  Drift time of main ATP-PRT form: 44.2 ms
[3]
  Competition STD NMR outcome: displacement of TIH by L-His
[4]
  Hill number (n H) for L-His inhibition: 1.5

## O=P(O)(O)OC[C@H]1O[C@H](OP(=O)(O)OP(=O)(O)O)[C@H](O)[C@@H]1O [PRPP, 5-phospho-α-D-ribose 1-diphosphate]
[1]; activation experiment, unactivated reaction, varying PRPP
  K m,PRPP: 190 ± 30 µM

## N[C@@H](Cc1cccs1)C(=O)O [TIH, 3-(2-thienyl)-L-alanine]
[1]; 400 µM L-His plus close to 4 mM TIH
  ATP-PRT activity restored: 100%
[1]; [TIH] 0.25 mM, L-His inhibition pattern, varying ATP
  V max: 0.28 ± 0.01 s⁻¹
[1]; [TIH] 0.8 mM, L-His inhibition pattern, varying ATP
  V max: 0.38 ± 0.01 s⁻¹
[1]; [TIH] 4 mM, L-His inhibition pattern, varying ATP
  V max: 0.76 ± 0.01 s⁻¹
[1]; read-out: ATP-PRT activity increased up to (maximal activation)
  Emax: ≤ 433%
[1]; varying ATP, Eq. 4
  αATP: 1.4 ± 0.2
  βATP: 4.9 ± 0.2
[1]; varying PRPP, Eq. 4
  α (PRPP): 1.1 ± 0.4
  β (PRPP): 4.9 ± 0.5
[2]; pH 6.8, charge state +28
  Drift time of main ATP-PRT form: 44.2 ms
[2]; pH 9.0, charge state +28
  Drift time of main ATP-PRT form: 44.1 ms

## Nc1ncnc2c1ncn2[C@@H]1O[C@H](COP(=O)(O)OP(=O)(O)OP(=O)(O)O)[C@@H](O)[C@H]1O [ATP]
[1]; [TIH] 0 mM, L-His inhibition pattern
  K m,ATP: 230 ± 30 µM
[1]; [TIH] 0.25 mM, L-His inhibition pattern
  K m,ATP: 200 ± 20 µM
[1]; [TIH] 0.8 mM, L-His inhibition pattern
  K m,ATP: 180 ± 20 µM
[1]; [TIH] 4 mM, L-His inhibition pattern
  K m,ATP: 160 ± 20 µM
[1]; activation experiment, unactivated reaction, varying ATP
  K m,ATP: 100 ± 10 µM

B1: Mycobacterium tuberculosis ATP-phosphoribosyltransferase (enzyme)
chain: MLRVAVPNKGALSEPATEILAEAGYRRRTDSKDLTVIDPVNNVEFFFLRPKDIAIYVGSGELDFGITGRDLVCDSGAQVRERLALGFGSSSFRYAAPAGRNWTTADLAGMRIATAYPNLVRKDLATKGIEATVIRLDGAVEISVQLGVADAIADVVGSGRTLSQHDLVAFGEPLCDSEAVLIERAGTDGQDQTEARDQLVARVQGVVFGQQYLMLDYDCPRSALKKATAITPGLESPTIAPLADPDWVAIRALVPRRDVNGIMDELAAIGAKAILASDIRFCRF
notes: also called ATP-PRT; HisG
[5]
  stoichiometry N: 6
